The record followed here is patent US10688093B2, “Methods, compositions, and uses of novel Fyn kinase inhibitors” (priority 2015, dated 2020).

Molecules are shown by their SMILES.

Sequence of full-length recombinant human FYN A (P06241 whole entry): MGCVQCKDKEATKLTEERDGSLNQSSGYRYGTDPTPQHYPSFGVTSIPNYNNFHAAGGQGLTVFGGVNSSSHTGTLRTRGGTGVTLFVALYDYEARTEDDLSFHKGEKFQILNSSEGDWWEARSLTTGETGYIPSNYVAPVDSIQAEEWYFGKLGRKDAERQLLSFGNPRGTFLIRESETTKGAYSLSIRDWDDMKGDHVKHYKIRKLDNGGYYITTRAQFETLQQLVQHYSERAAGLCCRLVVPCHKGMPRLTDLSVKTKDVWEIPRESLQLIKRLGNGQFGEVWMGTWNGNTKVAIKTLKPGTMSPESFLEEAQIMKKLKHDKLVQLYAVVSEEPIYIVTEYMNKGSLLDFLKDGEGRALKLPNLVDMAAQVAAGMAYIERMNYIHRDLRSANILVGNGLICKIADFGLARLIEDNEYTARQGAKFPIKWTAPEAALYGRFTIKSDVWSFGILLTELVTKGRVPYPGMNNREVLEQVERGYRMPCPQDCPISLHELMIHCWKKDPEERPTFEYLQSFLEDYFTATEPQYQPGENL

The first test deals with full-length recombinant human FYN A (Homo sapiens (Human), UniProt P06241). Description: ADP-Glo Kinase Assay of FYN kinase inhibition. It counts as biochemical. The settings on record: primary screen, initial compounds. An outline of the steps:
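ADP-Glo read-out of peptide phosphorylation after 90 min RT with 12.5 pmol ATP and 100 pg 12-mer substrate. Enzyme was N-GST full-length human FYN A from insect cells, 3 pg, pre-incubated 30 min with compound, 10 points from 10 μM top, 3-fold steps; IC50 from curve.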
For `CN(C)CCNC(=O)c1cccc(-c2cnc3ccc(-c4cccc(C(N)=O)c4)nn23)c1` [Compound 456, 3-[3-[3-(2-dimethylamino-ethylcarbamoyl)phenyl]imidazo [1,2-b]pyridazin-6-yl]benzamide], the IC50 was 4150 nM.
In the case of `COc1cc(-c2cnc(N)c(-c3cccc(O)c3)c2)cc(OC)c1OC` [382_0284_0087, 3-[2-amino-5-(3,4,5-trimethoxy-phenyl)-3-pyridyl]phenol], the IC50 amounted to 1020 nM.
In the case of `c1cc(-c2ccc3ncc(-c4ccc5c(c4)OCO5)n3n2)co1` [Compound 431, 3-(1,3-benzodioxol-5-yl)-6-(3-furyl) imidazo[1,2-b]pyridazine], the IC50 amounted to 1600 nM.
Still for that read-out and setting: with `CC(=O)Nc1cc(-c2ccc(C(=O)N3CCOCC3)cc2)cn2c(-c3cccc(C(C)=O)c3)cnc12` [Compound 275] the figure was 2030 nM.
On the same count and under the same terms, with `Cn1cc(-c2cc(NC=O)c3ncc(-c4ccc(F)cc4)n3c2)cn1` [Compound 576, N-[3-(4-fluorophenyl)-6-(1-methylpyrazol-4-yl)imidazo[1,2-a]pyridin-8-yl]formamide] the figure was 8090 nM; with `COc1ccc(Nc2cc3[nH]c(-c4cn[nH]c4)cc3cn2)cc1OC` [Compound 310, N-(3,4-dimethoxy-phenyl)-2-(1H-pyrazol-4-yl)-1H-pyrrolo[3,2-2]pyridin-6-amine], 12700 nM.
Still for that read-out and setting: the same measure for `CN(C)C(=O)c1cccc(-c2cn3c(-c4ccc(O)cc4)cnc3cn2)c1` [388_0080_0349, 3-[3-(4-hydroxyphenyl)imidazo[1,2-a]pyrazin-6-yl]-N,N-dimethyl-benzamide]: 974 nM; for `CN(C)CCNC(=O)c1ccc(-c2cn3c(-c4ccncc4)cnc3cn2)cc1` [388_0069_0327, N-(2-dimethylamino-ethyl)-4-[3-(4-pyridyl)imidazo [1,2-a]pyrazin-6-yl]benzamide]: 6910 nM.
Regarding `COc1ccccc1-c1n[nH]c2nccc(-c3ccc(F)c(Cl)c3)c12` [Compound 490, 4-(3-chloro-4-fluoro-phenyl)-3-(2-methoxy-phenyl)-1H-pyrazolo[3,4-b]pyridine], the IC50 was found to be 1280 nM.
On the same count and under the same terms, the same measure for `CN(C)CCNC(=O)c1cccc(-c2ccc3ncc(-c4cccs4)n3n2)c1` [Compound 438, N-(2-dimethyl-aminoethyl)-3-[3-(2-thienyl)imidazo[1,2-b]pyridazin-6-yl]benzamide]: 1160 nM; for `c1cc(-c2cnc3ccc(-c4ccoc4)nn23)ccn1` [Compound 346, 6-(3-furyl)-3-(4-pyridyl)imidazo [1,2-b]pyridazine]: 1020 nM; for `COc1cccc(-c2cnn3ccc(Nc4ccc(OC)nc4)nc23)c1` [294_0042_4140, 3-(3-methoxyphenyl)-N-(6-methoxy-3-pyridyl)pyrazolo [1,5-a]pyrimidin-5-amine]: 5310 nM.
Same read-out and setting: the same measure for `CC(C)N1CCN(c2ccc(-c3cn4c(-c5ccc(O)cc5)cnc4cn3)cc2)CC1` [388_0080_0182, 4-[6-[4-(4-isopropyl-piperazin-1-yl)phenyl]imidazo [1,2-a]pyrazin-3-yl]phenol]: 637 nM; for `CC(=O)c1cccc(-c2cnc3ccc(-c4ccoc4)nn23)c1` [Compound 367, 1-[3-[6-(3-furyl)imidazo [1,2-b]pyridazin-3-yl]phenyl] ethanone]: 3440 nM.
In the case of `Clc1cccc(-c2ccnc3[nH]nc(C4CC4)c23)c1` [Compound 506, 4-(3-chlorophenyl)-3-cyclopropyl-1H-pyrazolo[3,4-b]pyridine], the IC50 worked out at 30000 nM.
For the compound `NC(=O)c1cccc(-c2ccnc3[nH]nc(-c4ccccc4)c23)c1` [Compound 536, 3-(3-phenyl-1H-pyrazolo[3,4-b]pyridin-4-yl)benzamide], the IC50 was found to be 11700 nM.
On to `COc1ccc(CNc2nn3c(-c4ccc(CO)cc4)cnc3s2)cc1` [Compound 555, [4-[2-[(4-methoxyphenyl)methylamino]imidazo[2,1-b] [1,3,4]thiadiazol-5-yl]phenyl] methanol], for which the concentration for half-maximal inhibition (IC50) stood at 2810 nM.
As for `CC(C)[C@@H](CO)Nc1ccc2ncc(-c3cccc(N)c3)n2n1` [229_0254_0005, (2S)-2-[[3-(3-aminophenyl)imidazo[1,2-b]pyridazin-6-yl]amino]-3-methyl-butan-1-ol], the IC50 came out at 1810 nM.
The same measure, in the same setting: with `Oc1cccc(-c2cnc3ccc(-c4cccc(F)c4)nn23)c1` [Compound 392, 3-[6-(3-fluorophenyl)imidazo[1,2-b]pyridazin-3-yl]phenol] the figure was 2260 nM; with `CN(C)c1cccc(-c2cnc(Nc3ccc(N4CCOCC4)cc3)c3nccn23)c1` [184_0088_0135, 5-[3-(dimethyl-amino)phenyl]-N-(4-morpholino-phenyl) imidazo[1,2-a]pyrazin-8-amine], 2700 nM; with `OCc1cccc(-c2cnc3ccc(Cc4ccc(F)cc4)nn23)c1` [Compound 302, [3-[6-[(4-fluorophenyl)methyl]imidazo [1,2-b]pyridazin-3-yl]phenyl] methanol], 3970 nM.
Same read-out and setting: the same measure for `COc1cccc(-c2ccc3ncc(-c4ccc(CO)cc4)n3n2)c1` [Compound 365, [4-[6-(3-methoxyphenyl)imidazo[1,2-b]pyridazin-3-yl]phenyl] methanol]: 1560 nM; for `OCc1ccc(-c2ccc3ncc(-c4cccc(CO)c4)n3n2)cc1` [Compound 295, [4-[3-[3-(hydroxymethyl)phenyl]imidazo [1,2-b]pyridazin-6-yl]phenyl] methanol]: 2230 nM.
The same measure, in the same setting: with `CC(=O)Nc1cccc(-c2cnc3ccc(-c4ccc5c(c4)OCO5)nn23)c1` [Compound 273, N-[3-[6-(1,3-benzodioxol-5-yl)imidazo[1,2-b]pyridazin-3-yl]phenyl] acetamide] the figure was 1170 nM; with `CN1CCN(C(=O)c2cccc(-c3cnc(N)c(-c4cccc(N(C)C)c4)c3)c2)CC1` [382_0135_0200, [3-[6-amino-5-[3-(dimethylamino)phenyl]-3-pyridyl]phenyl]-(4-methyl-piperazin-1-yl)methanone], 4440 nM.
`Nc1cccc(-c2cnc3ccc(NCc4cccs4)nn23)c1` [229_0146_0005, 3-(3-aminophenyl)-N-(2-thienyimethyl) imidazo[1,2-b]pyridazin-6-amine]: the IC50 turned out to be 1790 nM.
For `Cc1cccc(Cc2ccc3ncc(-c4cccc(C(N)=O)c4)n3n2)c1` [Compound 484, 3-[6-(m-tolylmethyl)imidazo[1,2-b]pyridazin-3-yl]benzamide], the IC50 came out at 2170 nM.
Consider `COc1ccccc1-c1ccc2ncc(-c3cccc(C(C)=O)c3)n2n1` [Compound 357, 1-[3-[6-(2-methoxyphenyl)imidazo[1,2-b]pyridazin-3-yl]phenyl] ethanone], for which the IC50 was found to be 2330 nM.
Still for that read-out and setting: with `COc1cncc(-c2cnc3ccc(Cc4ccc(F)cc4)nn23)c1` [Compound 473, 6-[(4-fluoro-phenyl)methyl]-3-(5-methoxy-3-pyridyl)imidazo [1,2-b]pyridazine] the figure was 4420 nM; with `Fc1cccc(-c2ccc3ncc(-c4ccncc4)n3n2)c1` [Compound 341, 6-(3-fluorophenyl)-3-(4-pyridyl) imidazo[1,2-b]pyridazine], 356 nM.
Consider `CS(=O)(=O)Nc1cccc(-c2ccc3ncc(-c4ccc(CO)cc4)n3n2)c1` [Compound 293, N-[3-[3-[4-(hydroxymethyl)phenyl]imidazo [1,2-b]pyridazin-6-yl]phenyl] methane-sulfonamide], for which the IC50 was determined as 830 nM.
On the same count and under the same terms, with `COc1ccc(-c2cnc3ccc(-c4cccc(NS(C)(=O)=O)c4)nn23)cc1OC` [Compound 379, N-[3-[3-(3,4-dimethoxyphenyl)imidazo[1,2-b]pyridazin-6-yl]phenyl] methane-sulfonamide] the figure was 703 nM; with `COc1cc(-c2cc(-c3ccc(C(=O)NC4CC4)cc3)cnc2N)cc(OC)c1OC` [382_0087_7489, 4-[6-amino-5-(3,4,5-trimethoxy-phenyl)-3-pyridyl]-N-cyclopropyl-benzamide], 507 nM.
On the same count and under the same terms, the same measure for `COc1ccccc1C(=O)N1Cc2cnc(Nc3cccc(N(C)C)c3)nc2C1` [585_9372_5053, [2-[3-(dimethylamino)anilino]-5,7-dihydropyrrolo [3,4-d]pyrimidin-6-yl]-(2-methoxyphenyl) methanone]: 10100 nM; for `CCNC(=O)N1CCc2nc(Nc3cc(OC)c(OC)c(OC)c3)ncc2C1` [582_9377_5725, N-ethyl-2-(3,4,5-trimethoxy-anilino)-7,8-dihydro-5H-pyrido[4,3-d]pyrimidine-6-carboxamide]: 4250 nM.

The test is the same for the next values; noted with them: secondary screen, re-synthesized and expanded compounds.
With `OCc1cccc(-c2cnc3ccc(-c4ccncc4)nn23)c1` [BF000726364, [3-[6-(4-pyridyl)-imidpzo[1,2-b]pyridazin-3-yl]phenyl]-methanol], the IC50 came to 973 nM.
Take `COc1cc(-c2cnc3cnc(-c4cccc(C(=O)NCCO)c4)cn23)ccc1O` [BF000334020, N-(2-hydroxy-ethyl)-3-[3-(4-hydroxy-3-methoxy-phenyl)-imidazo[1,2-a]pyrazin-6-yl]benzamide]: the IC50 amounted to 1280 nM.
Same read-out and setting: with `COc1cc(-c2cc(-c3ccc(C(=O)NC4CC4)cc3)cnc2N)cc(OC)c1OC` [BF000312541, 4-[6-amino-5-(3,4,5-trimethoxy-phenyl)-3-pyridyl]-N-cyclopropyl-benzamide] the figure was 377 nM; with `CN(C)CCCNC(=O)c1ccc(-c2cn3c(-c4ccc(Oc5ccccc5)cc4)cnc3cn2)cc1` [BF000816927, N-[3-(dimethyl-amino)-propyl]-4-[3-(4-phenoxy-phenyl)imidazo[1,2-a]pyrazin-6-yl]benzamide], 247 nM; with `CN(C)CCNC(=O)c1ccc(-c2cn3c(-c4ccc(O)cc4)cnc3cn2)cc1` [BF000333881, N-[2-(dimethyl-amino)-ethyl]-4-[3-(4-hydroxy-phenyl)-imidazo[1,2-a]pyrazin-6-yl]-benzamide], 486 nM.
Still for that read-out and setting: the same measure for `COc1ccc(-c2ccc3ncc(-c4cccc(CO)c4)n3n2)cc1OC` [BF000726366, [3-[6-(3,4-dimethoxy-phenyl)-imidazo[1,2-b]pyridazin-3-yl]phenyl]-methanol]: 893 nM.
